Active and inactive are the calls of the source. The calls are words filed in the database; no cut-off is given here.
Assays:
Cavia porcellus [1] = species on record: Cavia porcellus; assay: Antitussive activity against crtric acid-induced cough in Cavia porcellus (guinea pig) model assessed as reduction in cough response at 250 to 500 ug/ml for 5 min through aerosol prior to exposure of aerosolized citric acid for 10 min; type: functional, organism-based
Cavia porcellus [2] = species on record: Cavia porcellus; assay: Antitussive activity against crtric acid-induced cough in Cavia porcellus (guinea pig) model assessed as cough latency at 125 to 250 ug/ml for 5 min through aerosol prior to exposure of aerosolized citric acid for 10 min; type: functional, organism-based
Cavia porcellus [3] = species on record: Cavia porcellus; assay: Antitussive activity against crtric acid-induced cough in Cavia porcellus (guinea pig) model assessed as cough response at 125 ug/ml for 5 min through aerosol prior to exposure of aerosolized citric acid for 10 min; type: functional, organism-based
Cavia porcellus [4] = species on record: Cavia porcellus; assay: Antitussive activity against crtric acid-induced cough in Cavia porcellus (guinea pig) model assessed as increase in cough latency at 500 ug/ml for 5 min through aerosol prior to exposure of aerosolized citric acid for 10 min; type: functional, organism-based
Cavia porcellus [5] = species on record: Cavia porcellus; assay: Antitussive activity against crtric acid-induced cough in Cavia porcellus (guinea pig) model assessed as increase in cough latency at 30 to 60 ug/ml for 5 min through aerosol prior to exposure of aerosolized citric acid for 10 min; type: functional, organism-based
Cavia porcellus [6] = species on record: Cavia porcellus; assay: Antitussive activity against crtric acid-induced cough in Cavia porcellus (guinea pig) model assessed as reduction in cough response at 15 to 60 ug/ml for 5 min through aerosol prior to exposure of aerosolized citric acid for 10 min; type: functional, organism-based
Cavia porcellus [7] = species on record: Cavia porcellus; assay: Toxicity in Cavia porcellus (guinea pig) assessed as irritation at 125 to 500 ug/ml through aerosol; type: organism-based; details: in vivo, inhaled_or_intranasal
Cavia porcellus [8] = species on record: Cavia porcellus; assay: Toxicity in Cavia porcellus (guinea pig) assessed as adverse behavior at 125 to 500 ug/ml through aerosol; type: organism-based; details: in vivo, inhaled_or_intranasal
Cavia porcellus [9] = species on record: Cavia porcellus; assay: Antitussive activity against crtric acid-induced cough in Cavia porcellus (guinea pig) model assessed as cough latency at 125 ug/ml for 5 min through aerosol prior to exposure of aerosolized citric acid for 10 min; type: functional, organism-based
Cavia porcellus [10] = species on record: Cavia porcellus; assay: Antitussive activity against crtric acid-induced cough in Cavia porcellus (guinea pig) model assessed as increase in cough latency at 250 to 500 ug/ml for 5 min through aerosol prior to exposure of aerosolized citric acid for 10 min; type: functional, organism-based
Cavia porcellus [11] = species on record: Cavia porcellus; assay: Antitussive activity against crtric acid-induced cough in Cavia porcellus (guinea pig) model assessed as reduction in cough response at 125 to 500 ug/ml for 5 min through aerosol prior to exposure of aerosolized citric acid for 10 min; type: functional, organism-based
Cavia porcellus [12] = species on record: Cavia porcellus; assay: Toxicity in Cavia porcellus (guinea pig) assessed as adverse behavior at 15 to 60 ug/ml through aerosol; type: organism-based; details: in vivo, inhaled_or_intranasal
Cavia porcellus [13] = species on record: Cavia porcellus; assay: Antitussive activity against crtric acid-induced cough in Cavia porcellus (guinea pig) model assessed as increase in cough latency at 15 to 60 ug/ml for 5 min through aerosol prior to exposure of aerosolized citric acid for 10 min; type: functional, organism-based
Cavia porcellus [14] = species on record: Cavia porcellus; assay: Toxicity in Cavia porcellus (guinea pig) assessed as irritation at 15 to 60 ug/ml through aerosol; type: organism-based; details: in vivo, inhaled_or_intranasal

SMILES: CC12CCC(CC1=O)C2(C)C (stereo not given)
- inhibition (Cavia porcellus [1]): Active
- Activity (Cavia porcellus [2]): inactive
- inhibition (Cavia porcellus [3]): inactive
- Activity (Cavia porcellus [4]): Active

SMILES: CC1CCC(C(C)C)C(O)C1 (stereo not given)
- Activity (Cavia porcellus [5]): Active
- inhibition (Cavia porcellus [6]): Active

SMILES: CC1(C)C2CC[C@]1(C)C(=O)NC2 [Alpha-camphidone]
- Activity (Cavia porcellus [7]): Non-toxic
- Activity (Cavia porcellus [8]): Non-toxic
- Activity (Cavia porcellus [9]): inactive
- Activity (Cavia porcellus [10]): Active
- inhibition (Cavia porcellus [11]): Active

SMILES: CC(C)[C@@H]1CC[C@@H](C)CC(=O)N1 [Menthol lactam]
- Activity (Cavia porcellus [12]): Non-toxic
- inhibition (Cavia porcellus [6]): Active
- Activity (Cavia porcellus [13]): Active
- Activity (Cavia porcellus [14]): Non-toxic

— ChEMBL document CHEMBL3044953, “Effect of nitrogen insertion on the antitussive properties of menthol and camphor” (Med Chem Res, 2012)
